Assays:
CCRF-CEM = format: cell-based; details: Homo sapiens, one dose 10^-5 M, 48 h
HL-60(TB) = format: cell-based; details: Homo sapiens, one dose 10^-5 M, 48 h
K-562 = format: cell-based; details: Homo sapiens, K562, one dose 10^-5 M, 48 h
MOLT-4 = format: cell-based; details: Homo sapiens, one dose 10^-5 M, 48 h, read-out: % growth
RPMI-8226 = format: cell-based; details: Homo sapiens, one dose 10^-5 M, 48 h
SR = format: cell-based; details: Homo sapiens, one dose 10^-5 M, 48 h
A549/ATCC = format: cell-based; details: Homo sapiens, one dose 10^-5 M, 48 h
EKVX = format: cell-based; details: Homo sapiens, one dose 10^-5 M, 48 h
HOP-62 = format: cell-based; details: Homo sapiens, one dose 10^-5 M, 48 h
HOP-92 = format: cell-based; details: Homo sapiens, one dose 10^-5 M, 48 h
NCI-H226 = format: cell-based; details: Homo sapiens, one dose 10^-5 M, 48 h
NCI-H23 = format: cell-based; details: Homo sapiens, one dose 10^-5 M, 48 h, read-out: % growth
NCI-H460 = format: cell-based; details: Homo sapiens, one dose 10^-5 M, 48 h, read-out: % growth
NCI-H522 = format: cell-based; details: Homo sapiens, one dose 10^-5 M, 48 h
COLO 205 = format: cell-based; details: Homo sapiens, one dose 10^-5 M, 48 h
HCC-2998 = format: cell-based; details: Homo sapiens, one dose 10^-5 M, 48 h
HCT-116 = format: cell-based; details: Homo sapiens, one dose 10^-5 M, 48 h, read-out: % growth
HCT-15 = format: cell-based; details: Homo sapiens, one dose 10^-5 M, 48 h, read-out: % growth
HT29 = format: cell-based; details: Homo sapiens, HT-29, one dose 10^-5 M, 48 h
KM12 = format: cell-based; details: Homo sapiens, one dose 10^-5 M, 48 h
SW-620 = format: cell-based; details: Homo sapiens, one dose 10^-5 M, 48 h
SF-268 = format: cell-based; details: Homo sapiens, one dose 10^-5 M, 48 h, read-out: % growth
SF-295 = format: cell-based; details: Homo sapiens, one dose 10^-5 M, 48 h
SF-539 = format: cell-based; details: Homo sapiens, one dose 10^-5 M, 48 h
SNB-19 = format: cell-based; details: Homo sapiens, one dose 10^-5 M, 48 h, read-out: % growth
U251 = format: cell-based; details: Homo sapiens, U-251, one dose 10^-5 M, 48 h
LOX IMVI = format: cell-based; details: Homo sapiens, one dose 10^-5 M, 48 h, read-out: % growth
MALME-3M = format: cell-based; details: Homo sapiens, one dose 10^-5 M, 48 h
M14 = format: cell-based; details: Homo sapiens, one dose 10^-5 M, 48 h
MDA-MB-435 = format: cell-based; details: Homo sapiens, one dose 10^-5 M, 48 h, read-out: % growth
SK-MEL-2 = format: cell-based; details: Homo sapiens, one dose 10^-5 M, 48 h
SK-MEL-28 = format: cell-based; details: Homo sapiens, one dose 10^-5 M, 48 h
SK-MEL-5 = format: cell-based; details: Homo sapiens, one dose 10^-5 M, 48 h, read-out: % growth
UACC-257 = format: cell-based; details: Homo sapiens, one dose 10^-5 M, 48 h
UACC-62 = format: cell-based; details: Homo sapiens, one dose 10^-5 M, 48 h
IGROV1 = format: cell-based; details: Homo sapiens, IGROV-1, one dose 10^-5 M, 48 h, read-out: % growth
OVCAR-3 = format: cell-based; details: Homo sapiens, one dose 10^-5 M, 48 h
OVCAR-4 = format: cell-based; details: Homo sapiens, one dose 10^-5 M, 48 h
OVCAR-5 = format: cell-based; details: Homo sapiens, one dose 10^-5 M, 48 h
OVCAR-8 = format: cell-based; details: Homo sapiens, one dose 10^-5 M, 48 h
NCI/ADR-RES = format: cell-based; details: Homo sapiens, one dose 10^-5 M, 48 h
SK-OV-3 = format: cell-based; details: Homo sapiens, one dose 10^-5 M, 48 h
786-0 = format: cell-based; details: Homo sapiens, one dose 10^-5 M, 48 h
A498 = format: cell-based; details: Homo sapiens, one dose 10^-5 M, 48 h
ACHN = format: cell-based; details: Homo sapiens, one dose 10^-5 M, 48 h
CAKI-1 = format: cell-based; details: Homo sapiens, CAKI-1, 48 h, one dose 10^-5 M, 48 h
RXF 393 = format: cell-based; details: Homo sapiens, RXF 393, 48 h, one dose 10^-5 M, 48 h, read-out: % growth
SN12C = format: cell-based, human; details: Homo sapiens, one dose 10^-5 M, 48 h
TK-10 = format: cell-based; details: Homo sapiens, one dose 10^-5 M, 48 h
UO-31 = format: cell-based; details: Homo sapiens, UO-31, 48 h, one dose 10^-5 M, 48 h
PC-3 = format: cell-based; details: Homo sapiens, one dose 10^-5 M, 48 h
DU-145 = format: cell-based; details: Homo sapiens, one dose 10^-5 M, 48 h
MCF7 = format: cell-based; details: Homo sapiens, one dose 10^-5 M, 48 h, read-out: % growth
MDA-MB-231/ATCC = format: cell-based; details: Homo sapiens, one dose 10^-5 M, 48 h
HS 578T = format: cell-based; details: Homo sapiens; one dose 10^-5 M, 48 h; HS 578T; read-out: % growth
BT-549 = format: cell-based; details: Homo sapiens, one dose 10^-5 M, 48 h
T-47D = format: cell-based; details: Homo sapiens, T47D, one dose 10^-5 M, 48 h, read-out: % growth
MDA-MB-468 = format: cell-based; details: Homo sapiens, one dose 10^-5 M, 48 h
[1] = system: full NCI 60 cell lines panel

Structure (SMILES): N=C(NN=Cc1ccc(Cl)cc1Cl)c1c(N)nc(S)nc1-c1ccc(Cl)cc1Cl [Compound 4r, 4-amino-6–(2,4-dichlorophenyl)-N'-[(2,4-dichlorophenyl)methylene]-2-mercapto pyrimidine-5-carboximidohydrazide]
- % cell growth at 10 µM (CCRF-CEM): 94.9%
- % growth at 10 µM (HL-60(TB)): 102%
- % growth at 10 µM (K-562): 100%
- activity at 10 µM (MOLT-4): 100%
- % growth at 10 µM (RPMI-8226): 106%
- percent cell growth at 10 µM (SR): 92.6%
- % growth at 10 µM (A549/ATCC): 102%
- % cell growth at 10 µM (EKVX): 114%
- % growth at 10 µM (HOP-62): 102%
- % growth at 10 µM (HOP-92): 78%
- % growth at 10 µM (NCI-H226): 106%
- activity at 10 µM (NCI-H23): 104%
- activity at 10 µM (NCI-H460): 111%
- % growth at 10 µM (NCI-H522): 100%
- % growth at 10 µM (COLO 205): 113%
- % growth at 10 µM (HCC-2998): 100%
- activity at 10 µM (HCT-116): 102%
- activity at 10 µM (HCT-15): 113%
- % growth at 10 µM (HT29): 118%
- % growth at 10 µM (KM12): 100%
- % growth at 10 µM (SW-620): 105%
- activity at 10 µM (SF-268): 101%
- % cell growth at 10 µM (SF-295): 98.5%
- % growth at 10 µM (SF-539): 101%
- activity at 10 µM (SNB-19): 94.6%
- % growth at 10 µM (U251): 105%
- activity at 10 µM (LOX IMVI): 104%
- % growth at 10 µM (MALME-3M): 86.5%
- % growth at 10 µM (M14): 97.4%
- activity at 10 µM (MDA-MB-435): 113%
- % growth at 10 µM (SK-MEL-2): 111%
- % cell growth at 10 µM (SK-MEL-28): 113%
- activity at 10 µM (SK-MEL-5): 107%
- percent cell growth at 10 µM (UACC-257): 106%
- % growth at 10 µM (UACC-62): 96.4%
- activity at 10 µM (IGROV1): 102%
- % growth at 10 µM (OVCAR-3): 108%
- % growth at 10 µM (OVCAR-4): 104%
- percent cell growth at 10 µM (OVCAR-5): 117%
- % growth of cells at 10 µM (OVCAR-8): 110%
- cell growth percent at 10 µM (NCI/ADR-RES): 111%
- % growth at 10 µM (SK-OV-3): 105%
- % growth at 10 µM (786-0): 87.5%
- % growth at 10 µM (A498): 117%
- % growth at 10 µM (ACHN): 107%
- % growth at 10 µM (CAKI-1): 109%
- activity at 10 µM (RXF 393): 119%
- % growth at 10 µM (SN12C): 102%
- % cell growth at 10 µM (TK-10): 112%
- % cell growth at 10 µM (UO-31): 92.5%
- percent cell growth at 10 µM (PC-3): 98.1%
- % growth at 10 µM (DU-145): 108%
- activity at 10 µM (MCF7): 98.9%
- % growth at 10 µM (MDA-MB-231/ATCC): 101%
- activity at 10 µM (HS 578T): 105%
- % cell growth at 10 µM (BT-549): 91.6%
- activity at 10 µM (T-47D): 103%
- percent cell growth at 10 µM (MDA-MB-468): 111%
- activity at 10 µM ([1]; Homo sapiens, 60 cell, 48 h, read-out: Mean % growth): 104%
- activity on all 60 cancer cell lines tested (in words) ([1]; one dose): weak activity
- Mean % growth ([1]; one dose 10^-5 M, 48 h, mean over all cell lines): 103.80%

— paper PMC10866072, “Design, synthesis, molecular modelling and biological evaluation of novel 6-amino-5-cyano-2-thiopyrimidine derivatives as potent anticancer agents against leukemia and apoptotic inducers” (Journal of Enzyme Inhibition and Medicinal Chemistry, 2024)
